Source: patent US20150104520A1, “Nanoparticle Formulations in Biomarker Detection” (priority 2013, published 2015)

Tested on: patients with epithelial ovarian cancer
Assay: Phase 2 randomized two-arm trial, IG-001 plus carboplatin vs paclitaxel plus carboplatin, 1st line
From the text: Phase II ovarian trial design: randomized, two-arm trial, primary advanced epithelial ovarian cancer consisting of 100 patients (50/each arm). […] The primary objective of the study was to determine the Composite Response by GCIG CA-125 Response and Response Evaluation Criteria in Solid Tumors (RECIST): based on non-inferiority study. […] The treatment regimen included 6 cycles of treatment with injection every three weeks and tumor screening after cycles 2, 4 and 6.

Compound | response rate (each with carboplatin) [%] | Response n (%) (composite response by GCIG CA-125 and RECIST, IG-001 260 mg/m^2 or paclitaxel 175 mg/m^2, each + carboplatin 5 AUC, every 3 weeks, 6 cycles) | SAE Rate (%) (patients with SAE) | UAE Rate (%) (patients with UAE)
CC(=O)O[C@H]1C(=O)[C@@]2(C)[C@H]([C@H](OC(=O)c3ccccc3)[C@]3(O)C[C@H](OC(=O)[C@H](O)[C@@H](NC(=O)c4ccccc4)c4ccccc4)C(C)=C1C3(C)C)[C@]1(OC(C)=O)CO[C@@H]1C[C@@H]2O [paclitaxel] | 77.8 | – | – | –
Paclitaxel + Carboplatin | – | 37 (77.08) n (%) | 15 (31.25) n (%) | 0 (0.00) n (%)
